According to publication PMC3210175, “8-Modified-2′-Deoxyadenosine Analogues Induce Delayed Polymerization Arrest during HIV-1 Reverse Transcription” (PLoS ONE, 2011):
Entries after “also recorded” stand apart in the source; their conditions may differ. Where two headings read alike, the source gives them in different places.

How the values were obtained:
[1] = Cytotoxicity on uninfected cells, MTT assay; assay type: cell-based; conditions: human, uninfected CEM-SS cells, mean ± SD, four independent experiments
Protocol: (§1) We thus addressed the antiviral activity of our nucleoside analogues in cell culture. All the synthesized nucleoside analogues (2a–g, 3, 7, 8 and 9) were tested for their ability to reduce HIV-1 LAI in CEM-SS cells. Viral replication was monitored by measuring the RT activity in the cell culture supernatants, while compound's cytotoxicity on uninfected cells was assessed using an MTT assay.
(§2) The activity of the nucleoside analogues 2a–g, 3, 7, 8 and 9 on HIV-1 replication was determined by measuring the RT activity associated with virus particles released from CEM-SS cells infected with HIV-1 Lai. The 50% cytotoxic concentration (CC50) was evaluated in parallel to the 50% inhibitory concentration (IC50)[37].

[2] = system: HIV-1 LAI in CEM-SS cells; test: HIV-1 inhibition in cell culture (RT activity in cell culture supernatants); assay type: cell-based; conditions: mean ± SD, four independent experiments
Protocol: as §1, §2

[3] = biological target: T1, HIV-1 RT (Human immunodeficiency virus type 1 group M subtype B, UniProt P04585, E1065Q); test: (+) strand DNA synthesis assay (DCT in 31-mer DNA template, 18-mer DNA primer); assay type: biochemical; conditions: analogue in 31-mer DNA template; RT 10 or 30 nM
T1 construct: helix αH in the thumb domain of the p66 subunit of HIV-1 RT; made in house
From the text: (§3) Viral RNA, comprising the first 311 nucleotides of the HIV-1 genomic RNA (Mal isolate) was in vitro transcribed and purified as previously described. 18-, 19 and 31-mer DNA oligodeoxynucleotides containing the modified 2′-dA analogues respectively at 3′ end, at the penultimate position of 3′ end and at a distance of 12 nucleotides from their 5′ end were chemically synthesized and purified as described above (Figure 5). Unmodified and modified 18- and 19-mer primers were labelled at their 5′ end with [γ-^32]ATP using phage T4 polynucleotide kinase and purified on 8% denaturing polyacrylamide gels. RNase H (−) reverse transcriptase bearing the E478Q mutation that abolishes RNase H activity (RT^EQ) was expressed and purified according to a method adapted from.
(§4) Primer/template (P/T) complexes, at a final concentration of 300 nM, were formed by incubating the primer with a 3 fold excess of either 1–311 viral RNA or modified 31-mer DNA oligonucleotide in water for 2 min at 90°C, cooling on ice for 2 min and incubating for 20 min at 50°C in 100 mM NaCl.
Thirty one-mer DNA templates, containing or not a modified 2′-deoxyadenosine were hybridized to an 18-mer DNA primer (Figure 5) and subsequent DNA synthesis and analysis of the reaction products were performed as described above.

[4] = biological target: T1, HIV-1 RT; test: (−) strand "n+6" DNA synthesis assay (ddATP instead of dATP; DCT-modified 18- or 19-mer primer on 1–311 HIV-1 MAL RNA template); assay type: biochemical; conditions: for Inhibition of (−) strand DNA synthesis (DCT in the primer), DCT at 3′-end 18 mer: "n+6" DNA synthesis assay, analogue incorporated at 3′ end of 18-mer DNA primer; for Delayed chain termination (accumulation of n+3 products): DCT at penultimate position of 19-mer primer, both 10 and 30 nM RT
From the text: as §3, §4
Ten nM P/T (with the 311 vRNA as template) were pre-incubated with 10 or 30 nM of RT at 37°C for 4 min. Reactions were initiated by the addition of 50 µM of each of the four dNTPs and stopped at various times with equal amounts of buffer containing formamide. The same procedure was used for synthesis of “+6” DNA except that ddATP was substituted for dATP. Reaction products were denatured for 2 min at 90°C prior to separation on an 8% polyacrylamide denaturing gel and quantified using a Fuji FLA-5100 analyser and the Image Gauge program.

[5] = system: CEM-SS cells; test: Cytotoxicity on uninfected cells, MTT assay; assay type: cell-based; conditions: mean ± SD, four independent experiments
Protocol: as §1, §2

[6] = biological target: T1, HIV-1 RT; test: (−) strand strong-stop DNA synthesis assay (DCT-modified 19-mer DNA primer on 1–311 HIV-1 MAL RNA template); assay type: biochemical; conditions: 10 nM RT, full-length product
From the text: as §3, §4
Ten nM P/T (with the 311 vRNA as template) were pre-incubated with 10 or 30 nM of RT at 37°C for 4 min. […] Reaction products were denatured for 2 min at 90°C prior to separation on an 8% polyacrylamide denaturing gel and quantified using a Fuji FLA-5100 analyser and the Image Gauge program.

[7] = biological target: T1, HIV-1 RT; test: DNA-directed DNA synthesis with modified 19-mer primer on 41-mer DNA template (Figure S2); assay type: biochemical; conditions: 8-MeS-dAMP at penultimate position of 19-mer primer, 10 or 90 nM RT
From the text: Supplementary file pone.0027456.s002.docx: Figure S2 Comparative effect of 8-MeS-dA on (−) and (+) strand DNA synthesis. A. Templates and primers used for the study. The template is either 1–311 HIV-1 MAL RNA, for which part of the sequence is shown, or a 41-mer DNA oligonucleotide. The primer is a 19- mer DNA strictly complementary to the central part of the template. X corresponds to either dAMP or 8-MeS-dAMP inserted at the penultimate position of the primer. “n” corresponds to the position of the modified nucleotide. B. Time course of in vitro DNA synthesis using 10 nM of primer/template complexes preincubated with either 10 or 90 nM of HIV-1 RT. Polymerization was initiated by the addition of 20 µM of dTTP, dGTP and dCTP as well as 50 µM of ddATP for the RNA-directed synthesis or 20 µM of dATP, dTTP, dCTP and 50 µM of ddGTP for the DNA directed synthesis. Reactions were stopped after 15, 60 and 120 min. (+6) and (+7) refer to the 6th and 7th nucleotides to be added with respect to the position of the modified nucleotide analogue. (DOCX) Click here for additional data file.

[8] = Human immunodeficiency virus 1, CEM-SS, read-out: EC50

Compound CN(C)c1nc2c(N)ncnc2n1[C@H]1C[C@H](O)[C@@H](CO)O1 [2a, 8-Dimethylamino-2'-deoxyadenosine] has a CC50 [1] greater than 100 µM and an EC50 [2, 8] greater than 100 µM.
In the case of CCN(C)c1nc2c(N)ncnc2n1[C@H]1C[C@H](O)[C@@H](CO)O1 [2b, 8-Ethylmethylamino-2'-deoxyadenosine], the “Effect on primer extension pattern / enzyme pausing in (+) strand DNA synthesis” value [3] is reported as “enzyme pausing is obvious at positions n+1 and mainly n+2”, the CC50 [1] is reported as greater than 100 µM and the EC50 [2, 8] is reported as greater than 100 µM. The “Inhibition of (−) strand DNA synthesis (DCT in the primer), DCT at 3′-end 18 mer” value ([4]; 10 nM RT) was “immediate chain terminator; also recorded: termination”, the “Inhibition of (−) strand DNA synthesis (DCT in the primer), DCT at 3′-end 18 mer” value ([4]; 30 nM RT) was “immediate chain terminator; also recorded: termination” and the “Delayed chain termination (accumulation of n+3 products)” value [4] was “clearly induced a delayed chain termination”.
Compound CCN(CC)c1nc2c(N)ncnc2n1[C@H]1C[C@H](O)[C@@H](CO)O1 [2c, 8-Diethylamino-2'-deoxyadenosine] has a CC50 [1] greater than 100 µM and an EC50 [2, 8] greater than 100 µM.
For Nc1ncnc2c1nc(N1CCCC1)n2[C@H]1C[C@H](O)[C@@H](CO)O1 [2d, 8-Pyrrolidin-2'-deoxyadenosine], the CC50 [1] was greater than 100 µM and the EC50 [2, 8] was greater than 100 µM.
Nc1ncnc2c1nc(N1CCCCC1)n2[C@H]1C[C@H](O)[C@@H](CO)O1 [2e, 8-Piperidin-2'-deoxyadenosine] gave a CC50 [1] greater than 100 µM and an EC50 [2, 8] greater than 100 µM.
For CC(C)Nc1nc2c(N)ncnc2n1[C@H]1C[C@H](O)[C@@H](CO)O1 [2f, 8-iPropyl-amino-2'-deoxyadenosine], the “Effect on primer extension pattern / enzyme pausing in (+) strand DNA synthesis” value [3] was “enzyme pausing is obvious at positions n+1 and mainly n+2”, the CC50 [1] was 81 µM and the CC50 [5] was 81.3 ± 6.1 µM. The EC50 [2, 8] was 14 µM, the EC50 ([2]; listed as 8-iPr-N-dA) was “moderate anti-HIV-1 activity” and the EC50 ([2]; read-out: EC50) was 14.2 ± 1.9 µM. For the same compound, the “Delayed chain termination (accumulation of n+3 products)” value [4] was “clearly induced a delayed chain termination”.
For CC(C)CNc1nc2c(N)ncnc2n1[C@H]1C[C@H](O)[C@@H](CO)O1 [2g, 8-iButyl-amino-2'-deoxyadenosine], the “Effect on primer extension pattern / enzyme pausing in (+) strand DNA synthesis” value [3] was “does not affect this pattern”, the CC50 [1] was greater than 100 µM and the EC50 [2, 8] was greater than 100 µM. For the same compound, the “Delayed chain termination (accumulation of n+3 products)” value [4] was “did not impact” and the “Inhibition of (−) strand DNA synthesis (DCT in the primer), DCT at penultimate position 19 mer” value [6] was “same pattern as the unmodified primer”.
In the case of CSc1nc2c(N)ncnc2n1[C@H]1C[C@H](O)[C@@H](CO)O1 [compound 3, 8-Methylthio-2′-deoxyadenosine], the “Effect on primer extension pattern / enzyme pausing in (+) strand DNA synthesis” value [3] is reported as “enzyme pausing is obvious at positions n+1 and mainly n+2”, the CC50 [1] is reported as greater than 100 µM and the EC50 [2, 8] is reported as greater than 100 µM. For the same compound, the “Delayed chain termination (accumulation of n+3 products)” value [4] was “clearly induced a delayed chain termination” and the “Delayed chain termination with DNA rather than RNA as template” value [7] was “did not act as a delayed chain terminator”.
NC(=O)c1nc2c(N)ncnc2n1[C@H]1C[C@H](O)[C@@H](CO)O1 [compound 7, 8-Carbamoyl-2′-deoxyadenosine] gave a CC50 [1] greater than 100 µM and an EC50 [2, 8] greater than 100 µM.
In the case of C=Cc1nc2c(N)ncnc2n1[C@H]1C[C@H](O)[C@@H](CO)O1 [compound 8, 8-Vinyl-2′-deoxyadenosine], the “Effect on primer extension pattern / enzyme pausing in (+) strand DNA synthesis” value [3] is reported as “enzyme pausing is obvious at positions n+1 and mainly n+2”, the CC50 [1] is reported as greater than 100 µM and the EC50 [2, 8] is reported as greater than 100 µM.
In the case of CCc1nc2c(N)ncnc2n1[C@H]1C[C@H](O)[C@@H](CO)O1 [compound 9, 8-Ethyl-2′-deoxyadenosine], the “Effect on primer extension pattern / enzyme pausing in (+) strand DNA synthesis” value [3] is reported as “enzyme pausing is obvious at positions n+1 and mainly n+2”, the CC50 [1] is reported as greater than 100 µM and the EC50 [2, 8] is reported as greater than 100 µM.
